Experiments:
peritoneal cells = assay: Effect of hemin on peritoneal cell number (cell counting, flow cytometry); assay type: in vivo; conditions: mice injected during a 7-day period, 3 per group, p 0.06 vs vehicle
Experimental: The effect of hemin or vehicle on peritoneal cell number was assayed. Mice (3 per group) were injected with vehicle or hemin during a 7-day period. Peritoneal cells were then isolated followed by counting. Cell viability was greater than 98% using trypan blue exclusion. The number of cells that were double positive for Mac-1^+ and F4/80^+ was then determined using flow cytometry. P-values compared the hemin treated versus the vehicle treated groups.

HO-1 = HO-1 immunoblot of mouse tissue/cell homogenates after hemin; assay type: in vivo, mice; conditions: for HO-1 induction: hemin 3× during 7 d
Experimental: (A, B) Total tissue homogenates were obtained from pancreata of caerulein-injected or choline deficient diet (CDD)-fed mice. Two age and sex-matched mice were used for each time point. Homogenates were tested by blotting using antibodies to HO-1 or HO-2. (C) Mice (3 mice/condition) were given hemin by intraperitoneal injection (4× during one week, or 8× during two weeks). Two “control” mice were injected with vehicle alone. Pancreatic homogenates were then obtained and blotted with anti-HO-1/2. (D-F) Mice were injected with saline, hemin, or vehicle (8 mice/group)3×(arrows) followed by feeding with CDD for 3 d then harvesting of the pancreata. HO-1 and HO-2 were analyzed by blotting of pancreatic homogenates (3 mice/group). […] A representative hematoxylin and eosin staining of pancreata from mice that survived CDD feeding is shown (scale bar=50 μM).
FIG. 8: HO-1 expression and hemin-mediated induction in mouse tissues and cells. Mice were injected 3× during 7d with vehicle or hemin (2 mice/group) followed by harvesting of the indicated organs and cells then preparation of total tissue/cell homogenates. Protein concentrations of the homogenates were measured followed by SDS-PAGE separation (40 μg of protein/lane) then blotting using anti-HO-1 antibodies.
Hemin, vehicle and antibodies. […]
Animal procedures. […] Immunofluorescence staining was performed as described (29) and images were analyzed using confocal microscopy. Total tissue lysates were prepared by homogenization in Laemmli sample buffer and analyzed by SDS-PAGE followed by transfer to membranes for blotting and protein visualization by enhanced chemiluminescence. Trypsin activity was determined using a fluorimetric assay and the substrate Boc-Gln-Ala-Arg-MCA (Peptides International Inc.; Louisville, Ky.), and comparison to a standard curve generated with purified trypsin as described. […] Lung injury after caerulein administration was assessed as previously described, based on neutrophilic infiltration, pulmonary edema, alveolar distension and collapse. […]

HO-2 = HO-2 immunoblot of mouse tissue homogenates after hemin; assay type: in vivo, mice; conditions: any of the tissues; hemin 3× during 7 d
CDD-induced pancreatitis = assay: Choline deficient diet (CDD)-induced pancreatitis after hemin pretreatment
Description: Balb/c mice were housed under pathogen-free conditions and utilized in two established models of pancreatitis. […] For the pancreatitis induced by feeding a choline/methionine-deficient diet (CDD), young female mice (15-19 g) were fasted then fed CDD (Harlan Teklad; Madison Wis.) supplemented with 0.5% DL-ethionine (Sigma; St. Louis, Mo.) or normal chow (control group) for 3 d, then switched to normal diet for 1, 2 or 5 d.
Animal procedures. Mice were euthanized by CO2 inhalation then pancreata and lungs were rapidly removed, divided into 3-4 pieces, and blood was collected by intracardiac puncture. Individual lung and pancreas fragments were immediately fixed in 10% formalin, embedded in OCT (Miles; Elkhart, Ind.) or snap-frozen in liquid N2 for subsequent protein, enzyme, and RNA analysis. […] Fixed tissues were sectioned then stained using hematoxylin and eosin (performed by Histo-tec Laboratory; Hayward, Calif.).

Hemin
Total cell number (peritoneal cells): 7.3 ± 2.1 × 10^6 | HO-1 induction (HO-1; bone marrow, spleen, brain): not in bone marrow, spleen or brain | level of HO-1 induction on excessive dosing (HO-1; pancreas, 8× during two weeks vs 4× during one week (FIG. 1C)): excessive dosing decreases the level of HO-1 induction | HO-1 induction (HO-1; peritoneal cells, liver, pancreas and colon): induction of HO-1 in peritoneal cells, liver, pancreas and colon (most prominent change being in pancreas) | HO-2 levels (HO-2): did not change | pancreatic injury (CDD-induced pancreatitis; figure title): inhibition of pancreatic injury | pancreas histology (edema, necrosis) (CDD-induced pancreatitis; hematoxylin and eosin, mice that survived CDD feeding): marked pancreas edema (E) and necrosis (N) in the saline (not shown) and vehicle injected mice, as compared with the “hemin” group | survival (CDD-induced pancreatitis; hemin 3× then CDD 3 d, 8 mice/group, p<0.03 vs controls (saline+vehicle)): survival difference was significant
